Laboratory results reported in ChEMBL document CHEMBL2062364, “Discovery and optimization of new benzimidazole- and benzoxazole-pyrimidone selective PI3Kβ inhibitors for the treatment of phosphatase and TENsin homologue (PTEN)-deficient cancers” (J Med Chem, 2012).
In brackets after ≈: the same amount, converted by molar mass.

Assays:
[1] = target: Phosphatidylinositol 4,5-bisphosphate 3-kinase catalytic subunit gamma isoform (Homo sapiens, UniProt P48736); assay: Inhibition of N-terminus poly-His tagged human PI3Kgamma expressed in baculovirus infected insect sf9 cells using PI(4,5)P2 as substrate preincubated with compound for 15 mins measured after 10 mins by HTRF assay
[2] = target: Serine/threonine-protein kinase mTOR (Homo sapiens, UniProt P42345); assay: Inhibition of mTOR
Cytochrome P450 3A4 = Cytochrome P450 3A4 (Homo sapiens, UniProt P08684); assay: Inhibition of human recombinant CPY3A4
[3] = target: T1, Phosphatidylinositol 4,5-bisphosphate 3-kinase catalytic subunit delta isoform (Homo sapiens, UniProt O00329); assay: Inhibition of poly-His tagged human PI3Kdelta expressed in baculovirus infected insect sf9 cells coexpressing p85alpha using PI(4,5)P2 as substrate preincubated with compound for 15 mins measured after 10 mins by HTRF assay
T1 sequence (O00329 whole entry): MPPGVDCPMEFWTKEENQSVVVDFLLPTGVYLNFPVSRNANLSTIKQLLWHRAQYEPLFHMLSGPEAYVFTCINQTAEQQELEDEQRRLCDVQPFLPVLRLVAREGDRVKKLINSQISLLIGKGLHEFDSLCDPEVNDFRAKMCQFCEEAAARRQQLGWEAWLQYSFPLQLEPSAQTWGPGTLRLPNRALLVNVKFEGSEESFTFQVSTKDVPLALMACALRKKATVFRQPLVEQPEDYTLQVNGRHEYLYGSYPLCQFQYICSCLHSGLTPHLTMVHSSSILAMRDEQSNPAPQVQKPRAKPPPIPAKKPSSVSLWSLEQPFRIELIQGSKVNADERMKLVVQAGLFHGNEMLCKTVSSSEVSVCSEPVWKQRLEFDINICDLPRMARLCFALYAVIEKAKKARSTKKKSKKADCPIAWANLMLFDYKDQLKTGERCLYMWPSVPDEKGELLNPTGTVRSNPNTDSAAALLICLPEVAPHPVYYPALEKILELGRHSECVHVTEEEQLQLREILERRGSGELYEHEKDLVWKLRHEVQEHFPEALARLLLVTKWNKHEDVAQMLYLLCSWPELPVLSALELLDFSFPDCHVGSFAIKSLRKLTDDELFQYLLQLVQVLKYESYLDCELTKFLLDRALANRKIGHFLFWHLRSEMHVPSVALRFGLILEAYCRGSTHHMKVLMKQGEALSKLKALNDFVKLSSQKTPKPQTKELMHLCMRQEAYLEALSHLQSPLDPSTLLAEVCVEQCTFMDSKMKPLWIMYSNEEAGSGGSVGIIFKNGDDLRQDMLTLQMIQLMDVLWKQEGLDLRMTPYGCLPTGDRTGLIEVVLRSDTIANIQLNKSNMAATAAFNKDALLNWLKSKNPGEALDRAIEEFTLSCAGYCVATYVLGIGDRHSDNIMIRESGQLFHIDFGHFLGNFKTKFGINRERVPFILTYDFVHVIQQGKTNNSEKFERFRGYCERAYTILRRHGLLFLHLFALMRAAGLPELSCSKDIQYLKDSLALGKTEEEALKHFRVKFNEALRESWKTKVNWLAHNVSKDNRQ

[4] = Thermodynamic solubility of the compound in phosphate buffer at pH 7.4 after 16 hrs by HPLC analysis; type: physicochemical; settings: read-out: Therm_solubility
[5] = target: T2, Phosphatidylinositol 4,5-bisphosphate 3-kinase catalytic subunit beta isoform (Homo sapiens, UniProt P42338); assay: Inhibition of N-terminus poly-His tagged human PI3Kbeta expressed in baculovirus infected insect […] cells coexpressing p85alpha using PI(4,5)P2 as substrate preincubated with compound for 15 mins measured after 10 mins by HTRF assay
[6] = target: T2, Phosphatidylinositol 4,5-bisphosphate 3-kinase catalytic subunit beta isoform; assay: Inhibition of human PI3Kbeta-mediated Akt phosphorylation at Ser473 residue expressed in PTEN-deficient human PC3 cells by chemiluminescence assay; type: cell-based, PC-3
[7] = Drug metabolism in mouse liver microsomes; type: ADME, Microsome; settings: read-out: Drug metabolism
[8] = Drug metabolism in human liver microsomes; type: ADME, Microsome; settings: read-out: Drug metabolism
[9] = target: Phosphatidylinositol 4,5-bisphosphate 3-kinase catalytic subunit alpha isoform (Homo sapiens, UniProt P42336); assay: Inhibition of N-terminus poly-His tagged human PI3Kalpha expressed in baculovirus infected insect sf9 cells coexpressing p85alpha using PI(4,5)P2 as substrate preincubated with compound for 15 mins measured after 10 mins by HTRF assay
[10] = Apparent permeability of the compound across human Caco2 cells; type: ADME, cell-based; settings: Caco-2

Phosphatidylinositol 4,5-bisphosphate 3-kinase catalytic subunit alpha isoform, sequence (P42336 whole entry, canonical isoform): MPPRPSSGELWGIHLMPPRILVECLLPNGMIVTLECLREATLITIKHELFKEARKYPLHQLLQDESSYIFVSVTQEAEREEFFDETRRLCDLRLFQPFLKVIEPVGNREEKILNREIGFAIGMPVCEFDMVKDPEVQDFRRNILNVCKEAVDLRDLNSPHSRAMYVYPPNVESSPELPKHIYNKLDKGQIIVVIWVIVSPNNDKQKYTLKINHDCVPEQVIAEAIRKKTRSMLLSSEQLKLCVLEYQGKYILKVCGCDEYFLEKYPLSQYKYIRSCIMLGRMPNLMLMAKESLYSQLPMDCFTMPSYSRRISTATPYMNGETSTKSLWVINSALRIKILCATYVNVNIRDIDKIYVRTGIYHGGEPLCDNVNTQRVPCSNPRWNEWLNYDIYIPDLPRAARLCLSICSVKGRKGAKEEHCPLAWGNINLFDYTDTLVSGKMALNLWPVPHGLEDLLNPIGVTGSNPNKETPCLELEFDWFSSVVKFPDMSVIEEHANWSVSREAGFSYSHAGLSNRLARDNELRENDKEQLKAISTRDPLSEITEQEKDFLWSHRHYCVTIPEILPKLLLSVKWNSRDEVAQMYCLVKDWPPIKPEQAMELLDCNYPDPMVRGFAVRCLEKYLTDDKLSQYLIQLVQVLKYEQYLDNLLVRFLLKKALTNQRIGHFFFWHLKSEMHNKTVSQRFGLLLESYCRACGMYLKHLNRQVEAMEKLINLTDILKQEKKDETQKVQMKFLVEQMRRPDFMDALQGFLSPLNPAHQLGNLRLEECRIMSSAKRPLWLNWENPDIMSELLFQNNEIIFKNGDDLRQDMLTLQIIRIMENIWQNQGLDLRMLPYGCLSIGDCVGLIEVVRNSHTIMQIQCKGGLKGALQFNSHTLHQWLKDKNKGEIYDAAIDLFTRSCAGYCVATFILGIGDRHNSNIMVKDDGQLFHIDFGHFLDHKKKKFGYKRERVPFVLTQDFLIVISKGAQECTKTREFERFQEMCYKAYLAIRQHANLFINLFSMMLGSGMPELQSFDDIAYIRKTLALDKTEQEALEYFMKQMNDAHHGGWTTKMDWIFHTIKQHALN
Cytochrome P450 3A4, sequence (P08684 whole entry, canonical isoform): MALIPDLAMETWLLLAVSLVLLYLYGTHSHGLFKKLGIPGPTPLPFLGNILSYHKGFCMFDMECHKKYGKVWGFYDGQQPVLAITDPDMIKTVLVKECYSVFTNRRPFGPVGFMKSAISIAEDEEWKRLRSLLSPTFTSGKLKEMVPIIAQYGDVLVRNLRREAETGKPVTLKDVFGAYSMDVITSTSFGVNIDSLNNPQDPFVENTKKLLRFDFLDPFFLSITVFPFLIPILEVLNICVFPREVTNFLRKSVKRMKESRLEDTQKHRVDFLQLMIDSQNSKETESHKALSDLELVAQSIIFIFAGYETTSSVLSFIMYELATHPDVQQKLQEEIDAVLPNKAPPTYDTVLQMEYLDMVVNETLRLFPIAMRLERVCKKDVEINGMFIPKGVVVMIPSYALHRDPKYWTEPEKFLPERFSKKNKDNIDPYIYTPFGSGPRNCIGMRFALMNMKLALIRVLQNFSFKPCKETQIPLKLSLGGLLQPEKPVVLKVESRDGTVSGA
T2 sequence (P42338 whole entry, canonical isoform): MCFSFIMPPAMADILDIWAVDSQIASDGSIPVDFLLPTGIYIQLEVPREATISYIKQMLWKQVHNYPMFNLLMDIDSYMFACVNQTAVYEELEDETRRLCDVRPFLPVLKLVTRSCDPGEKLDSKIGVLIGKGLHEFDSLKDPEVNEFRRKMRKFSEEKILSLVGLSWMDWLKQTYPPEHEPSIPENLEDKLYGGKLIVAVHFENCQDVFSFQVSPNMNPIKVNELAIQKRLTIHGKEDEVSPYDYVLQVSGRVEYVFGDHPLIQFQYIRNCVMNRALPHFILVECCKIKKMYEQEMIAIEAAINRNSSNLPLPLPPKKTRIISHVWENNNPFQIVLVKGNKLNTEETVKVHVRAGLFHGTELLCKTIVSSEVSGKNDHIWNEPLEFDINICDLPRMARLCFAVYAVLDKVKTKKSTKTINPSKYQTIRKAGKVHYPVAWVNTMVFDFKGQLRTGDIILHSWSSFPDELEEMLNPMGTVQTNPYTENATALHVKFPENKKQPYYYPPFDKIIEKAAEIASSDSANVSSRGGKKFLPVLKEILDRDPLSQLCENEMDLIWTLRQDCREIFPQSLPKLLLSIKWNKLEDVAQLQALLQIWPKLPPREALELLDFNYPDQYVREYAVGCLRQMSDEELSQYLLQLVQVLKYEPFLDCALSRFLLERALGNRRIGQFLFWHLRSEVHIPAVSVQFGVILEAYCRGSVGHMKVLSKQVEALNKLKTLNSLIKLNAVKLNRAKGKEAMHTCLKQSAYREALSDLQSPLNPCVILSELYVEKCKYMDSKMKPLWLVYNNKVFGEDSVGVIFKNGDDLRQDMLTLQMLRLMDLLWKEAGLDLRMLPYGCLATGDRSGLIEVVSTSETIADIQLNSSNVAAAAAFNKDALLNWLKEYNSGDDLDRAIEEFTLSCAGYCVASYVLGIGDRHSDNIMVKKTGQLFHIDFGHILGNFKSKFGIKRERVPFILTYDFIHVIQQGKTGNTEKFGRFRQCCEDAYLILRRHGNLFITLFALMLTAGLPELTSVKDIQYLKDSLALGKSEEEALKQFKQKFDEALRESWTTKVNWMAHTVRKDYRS
Phosphatidylinositol 4,5-bisphosphate 3-kinase catalytic subunit gamma isoform, sequence (P48736 whole entry, canonical isoform): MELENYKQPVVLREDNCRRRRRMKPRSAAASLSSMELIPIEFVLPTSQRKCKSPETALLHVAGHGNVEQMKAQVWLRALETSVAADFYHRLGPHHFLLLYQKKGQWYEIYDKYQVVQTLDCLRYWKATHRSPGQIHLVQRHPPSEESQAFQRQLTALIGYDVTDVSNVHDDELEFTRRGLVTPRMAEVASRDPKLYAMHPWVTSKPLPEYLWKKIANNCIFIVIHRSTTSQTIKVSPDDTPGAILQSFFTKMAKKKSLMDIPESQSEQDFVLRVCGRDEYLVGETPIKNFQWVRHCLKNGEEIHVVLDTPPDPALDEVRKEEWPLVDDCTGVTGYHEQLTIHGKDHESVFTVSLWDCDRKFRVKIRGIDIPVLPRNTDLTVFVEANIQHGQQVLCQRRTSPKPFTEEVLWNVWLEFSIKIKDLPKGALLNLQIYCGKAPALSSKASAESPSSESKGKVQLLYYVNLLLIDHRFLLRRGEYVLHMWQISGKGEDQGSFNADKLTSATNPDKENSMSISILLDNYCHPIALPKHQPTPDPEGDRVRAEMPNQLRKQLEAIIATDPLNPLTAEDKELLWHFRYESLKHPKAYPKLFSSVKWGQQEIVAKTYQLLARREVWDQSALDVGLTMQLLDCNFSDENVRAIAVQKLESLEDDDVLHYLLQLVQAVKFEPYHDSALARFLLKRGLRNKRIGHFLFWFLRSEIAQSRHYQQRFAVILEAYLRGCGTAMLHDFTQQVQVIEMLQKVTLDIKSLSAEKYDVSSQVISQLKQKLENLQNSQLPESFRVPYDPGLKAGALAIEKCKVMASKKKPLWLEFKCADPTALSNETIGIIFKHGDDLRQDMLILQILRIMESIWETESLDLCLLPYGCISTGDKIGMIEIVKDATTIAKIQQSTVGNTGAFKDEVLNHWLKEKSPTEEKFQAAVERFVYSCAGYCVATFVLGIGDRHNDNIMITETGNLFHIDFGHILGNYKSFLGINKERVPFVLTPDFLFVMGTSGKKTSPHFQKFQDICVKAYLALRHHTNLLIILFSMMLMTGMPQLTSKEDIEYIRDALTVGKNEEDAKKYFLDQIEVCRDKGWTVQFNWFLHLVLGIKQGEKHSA

| Structure (SMILES) | IC50 [1] [nM] | IC50 [2] [nM] | IC50 (Cytochrome P450 3A4) [nM] | IC50 [3] [nM] | solubility thermodynamic at 16 h [4] [µM] | IC50 [5] [nM] | IC50 [6] [nM] | metabolised [7] [%] | metabolised [8] [%] | IC50 [9] [nM] | Papp [10] [×10⁻⁶ cm/s] |
| --- | --- | --- | --- | --- | --- | --- | --- | --- | --- | --- | --- |
| O=c1cc(N2CCOCC2)nc(Cc2nc3ccc(Cl)cc3[nH]2)[nH]1 | > 10000 | > 10000 | > 40000 | 247 | 3 (≈ 1.04 µg/mL) | 99 | 63 | 35 | 78 | 5650 | – |
| Cc1cccc2nc(Cc3nc(N4CCOCC4)cc(=O)[nH]3)oc12 | > 10000 | > 10000 | – | 2380 | – | 425 | 202 | – | – | 7150 | – |
| O=c1cc(N2CCOCC2)nc(Cc2nc3c(-c4cccs4)cccc3o2)[nH]1 | 5740 | > 10000 | 19000 | 398 | 3 (≈ 1.18 µg/mL) | 46 | 22 | 79 | 60 | 4360 | 25.5 |
| O=c1cc(N2CCOCC2)nc(Cc2nc3ccc(C(F)(F)F)cc3[nH]2)[nH]1 | > 10000 | > 10000 | – | 2850 | – | 386 | 961 | – | – | > 10000 | – |
| O=c1cc(N2CCOCC2)nc(Cc2nc3c(-c4ccccc4)cccc3o2)[nH]1 | > 10000 | > 10000 | – | 373 | 3 (≈ 1.17 µg/mL) | 19 | 13 | 26 | 40 | 7750 | 31 |
| O=c1cc(N2CCOCC2)nc(Cc2nc3c(Br)cccc3o2)[nH]1 | > 10000 | > 10000 | – | 2270 | – | 585 | 127 | – | – | > 10000 | – |
| O=c1cc(N2CCOCC2)nc(Cc2nc3c(F)cccc3o2)[nH]1 | > 10000 | > 10000 | – | 8450 | – | 567 | 125 | – | – | > 10000 | – |
| Cn1c(Cc2nc(N3CCOCC3)cc(=O)[nH]2)nc2cc(-c3ccccc3)ccc21 | > 10000 | > 10000 | – | 6750 | – | > 10000 | – | – | – | > 10000 | – |
| O=C(Cc1nc(N2CCOCC2)cc(=O)[nH]1)Nc1ccccc1 | > 10000 | > 10000 | – | 118 | – | 42 | – | – | – | 2130 | – |
| COCCn1c(Cc2nc(N3CCOCC3)cc(=O)[nH]2)nc2cc(F)ccc21 | > 10000 | > 10000 | – | 270 | – | 205 | 109 | – | – | > 10000 | – |
| Cc1ccc2[nH]c(Cc3nc(N4CCOCC4)cc(=O)[nH]3)nc2c1 | > 10000 | > 10000 | – | 2210 | – | 450 | 140 | – | – | 9880 | – |
| Cc1cc(F)ccc1Oc1cccc2c(=O)cc(N3CCOCC3)[nH]c12 | > 10000 | – | – | 166 | – | 32 | 72 | – | – | > 10000 | – |
| O=c1cc(N2CCOCC2)nc(Cc2nc3cc(Br)ccc3[nH]2)[nH]1 | > 10000 | > 10000 | > 40000 | 442 | 3 (≈ 1.17 µg/mL) | 91 | 85 | 27 | 75 | 5460 | – |
| Cn1c(Cc2nc(N3CCOCC3)cc(=O)[nH]2)nc2ccc(-c3ccccc3)cc21 | > 10000 | > 10000 | – | 3410 | – | 3410 | – | – | – | 7800 | – |
| COc1ccc2[nH]c(Cc3nc(N4CCOCC4)cc(=O)[nH]3)nc2c1 | > 10000 | > 10000 | – | 397 | – | 193 | 475 | – | – | > 10000 | – |
| Cn1c(Cc2nc(N3CCOCC3)cc(=O)[nH]2)nc2c(-c3ccccc3)cccc21 | > 10000 | > 10000 | > 40000 | 274 | – | 57 | 26 | 40 | 41 | 314 | 11.4 |

| Structure (SMILES) | IC50 [1] [nM] | IC50 [2] [nM] | IC50 (Cytochrome P450 3A4) [nM] | IC50 [3] [nM] | solubility thermodynamic at 16 h [4] [µM] | IC50 [5] [nM] | IC50 [6] [nM] | metabolised [7] [%] | metabolised [8] [%] | IC50 [9] [nM] | Papp [10] [×10⁻⁶ cm/s] |
| --- | --- | --- | --- | --- | --- | --- | --- | --- | --- | --- | --- |
| Cn1c(Cc2nc(N3CCOCC3)cc(=O)[nH]2)nc2ccc(F)cc21 | > 10000 | > 10000 | – | 1060 | – | 290 | 289 | – | – | > 10000 | – |
| O=c1cc(N2CCOCC2)nc(Cc2nc3ccccc3n2Cc2ccccc2)[nH]1 | > 10000 | > 10000 | – | 84 | – | 111 | 105 | – | – | 5720 | – |
| Cc1cccc2oc(Cc3nc(N4CCOCC4)cc(=O)[nH]3)nc12 | 3330 | > 10000 | – | 2750 | – | 461 | 75 | – | – | > 10000 | – |
| Cc1ccc2oc(Cc3nc(N4CCOCC4)cc(=O)[nH]3)nc2c1 | – | > 10000 | – | – | – | 960 | 233 | – | – | > 10000 | – |
| O=c1cc(N2CCOCC2)nc(Cc2nc3c(-c4cccnc4)cccc3o2)[nH]1 | > 10000 | > 10000 | – | 335 | – | 156 | 44 | – | – | > 10000 | – |
| O=c1cc(N2CCOCC2)nc(Cc2nc3ccc(F)cc3o2)[nH]1 | > 10000 | > 10000 | – | 9040 | – | 126 | 49 | – | – | > 10000 | – |
| Cn1c(Cc2nc3ccccc3o2)nc(N2CCOCC2)cc1=O | – | > 10000 | – | – | – | 1330 | – | – | – | > 10000 | – |
| O=c1cc(N2CCOCC2)nc(Cc2nc3cc(F)ccc3n2C2CC2)[nH]1 | > 10000 | > 10000 | > 40000 | 36 | – | 29 | 9 | 99 | 99 | > 10000 | 2.2 |
| Cn1c(Cc2nc3cc(F)ccc3[nH]2)nc(N2CCOCC2)cc1=O | > 10000 | > 10000 | – | 5720 | – | 739 | – | – | – | > 10000 | – |
| Cc1ccc2nc(Cc3nc(N4CCOCC4)cc(=O)[nH]3)oc2c1 | > 10000 | > 10000 | – | 1140 | – | 526 | 143 | – | – | 9770 | – |
| O=c1cc(N2CCOCC2)nc(Cc2nc3ccccc3n2C2CCCCC2)[nH]1 | > 10000 | > 10000 | > 40000 | 21 | – | 90 | 142 | 96 | 97 | 8400 | 1.5 |
| O=c1cc(N2CCOCC2)nc(Cc2nc3ccccc3[nH]2)[nH]1 | > 10000 | > 10000 | – | 2870 | – | 158 | 665 | – | – | > 10000 | – |
| O=c1cc(N2CCOCC2)nc(Cc2nc3cccc(F)c3o2)[nH]1 | > 10000 | > 10000 | – | 2560 | – | 373 | 88 | – | – | > 10000 | – |
| O=c1cc(N2CCOCC2)nc(Cc2nc3c(-c4ccncc4)cccc3o2)[nH]1 | > 10000 | > 10000 | – | 995 | – | 158 | 47 | – | – | > 10000 | – |
| O=c1cc(N2CCOCC2)nc(Cc2nc3c(-c4ccccn4)cccc3o2)[nH]1 | > 10000 | > 10000 | – | 2170 | – | 336 | 113 | – | – | 3330 | – |
